The record followed here is publication PMC10107996, “Release of hepatitis B virions is positively regulated by glucose‐regulated protein 78 through direct interaction with preS1” (Journal of Medical Virology, 2022).

“Also recorded” adds a separate entry of the source. No end group written: not given here.

In one assay the target is T1, recombinant GRP78 (Homo sapiens, UniProt P11021).
T1 construct: His; made in house; host or cells: Escherichia coli BL21
The assay is described as follows: Isothermal titration calorimetry (ITC) with recombinant GRP78. It counts as binding. The procedure:
Additionally, we collected purified recombinant GRP78 protein (Supporting Information: Figure S2) and HBV‐enveloped particles from the cell supernatant, followed by separation by ultracentrifugation at 4°C for isothermal titration calorimetry (ITC) experiments. […] These findings confirmed the ability of HBV to promote GRP78 expression and identified that GRP78 directly interacts with preS1 and HBV‐enveloped particles.
Affinity constants under equilibrium (Ka) were obtained using a Nano ITC instrument. GRP78 protein solution (300 µL) was titrated with repeated injections of 40 µL solution until saturation at 25 °C. Nano Analyze software was used for the integration of heat signals and nonlinear regression analysis of the data.
On the technique in general: Isothermal titration calorimetry measures the heat released or taken up as one component is titrated into another.

The test system of assay [1] is HBV‐enveloped particle release from HepG2.2.15 cells. The assay is described as follows: HBV-enveloped particle release and viral DNA content, particle gel assay and qPCR, HepG2.2.15 cells. It counts as cell-based, hepatitis B virus. As to conditions: for inhibition of GRP78-enhanced enveloped‐particle release and viral DNA content: GRP78‐overexpressing HepG2.2.15 cells. Here is the method: (§1) HBV virions were identified by particle gel assay.[25] HBV‐producing cells were cultured, followed by harvesting of the culture medium. Cell supernatant was added to 35% PEG8000 and shaken at 4°C for >2 h. The viral particles were dissolved in TNE buffer, incubated overnight at 4°C, and subjected to agarose gel electrophoresis. The samples were transferred to a nitrocellulose membranes, treated with methanol for 30 min, blocked with 5% nonfat milk, and incubated with anti‐preS1 (for enveloped particles) or anti‐HBc (for capsid particles) antibodies for 1 h at 20°C. Following incubation with an antimouse secondary antibody (1:10,000) at 4°C overnight, the membrane was visualized using the an enhanced chemiluminescence western blot detection kit (Beyotime Biotech).

Assay [2] relates to HBV‐enveloped particle release from HepAD38 cells. The assay is described as follows: HBV-enveloped particle release, particle gel assay, HepAD38 cells. The assay is classed as cell-based, hepatitis B virus. Here is the method:
as §1

In assay [3] the target is T2, purified recombinant GRP78 protein (human, UniProt P11021 19-654).
T2 construct: source: recombinant, purified
The assay is described as follows: ITC; recombinant GRP78 with preS1 peptides. As to conditions: both partners purified.

In assay [4] the target is T2, purified recombinant GRP78 protein. The experiment in a line: MST; purified truncated GST-preS1 proteins with GRP78. As to conditions: both partners purified.
Where [5] appears, read: synthesized peptide and recombinant GRP78, 25 °C.

T2 sequence (P11021 19-654): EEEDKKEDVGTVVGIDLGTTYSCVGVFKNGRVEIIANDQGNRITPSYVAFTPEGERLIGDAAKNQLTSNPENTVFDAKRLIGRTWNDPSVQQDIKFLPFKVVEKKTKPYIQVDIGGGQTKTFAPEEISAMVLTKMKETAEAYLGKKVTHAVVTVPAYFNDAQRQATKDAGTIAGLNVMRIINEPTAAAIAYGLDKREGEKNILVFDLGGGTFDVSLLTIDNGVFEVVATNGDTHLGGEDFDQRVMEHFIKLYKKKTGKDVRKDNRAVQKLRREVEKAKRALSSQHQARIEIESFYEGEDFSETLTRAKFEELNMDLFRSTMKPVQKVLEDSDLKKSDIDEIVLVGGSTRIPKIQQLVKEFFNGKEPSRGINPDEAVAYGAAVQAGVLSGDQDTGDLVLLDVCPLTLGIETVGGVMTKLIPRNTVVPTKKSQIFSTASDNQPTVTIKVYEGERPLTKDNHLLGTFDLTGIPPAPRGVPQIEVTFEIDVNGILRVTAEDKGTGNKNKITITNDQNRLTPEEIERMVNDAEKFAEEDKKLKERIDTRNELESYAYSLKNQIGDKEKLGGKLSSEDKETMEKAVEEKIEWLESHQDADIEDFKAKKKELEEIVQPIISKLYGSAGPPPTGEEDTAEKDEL
T1 sequence (P11021 19-654): as above

With “MKAHHSQLYPRH [GBP66, phage-display 12-mer peptide […]]”, at recombinant GRP78 (setting [5]), the “N (sites)” value was determined as 10.0±2.38 sites and the “△H” value stood at 1.55 ± 0.647 kcal/mol.
As to “SNIGALQFLPPP [GBP67, phage-display 12-mer peptide […]]”, on recombinant GRP78 (setting [5]), the KD entry is given as “negative”, the “N (sites)” value is given as “negative” and the “△H” value was “negative”.
Consider VTTVGMPNKSFF [GBP68], for which, at recombinant GRP78 (setting [5]), the “N (sites)” value came to 5.79±0.738 sites and the “△H” value was found to be 3.49 ± 0.881 kcal/mol. In addition, the “effect on abundance of cytoplasmic viral particles and core particle release” value in assay [1] (HepG2.2.15 and HepAD38 cells, particle gel assay with anti‐HBcAg and anti‐preS1 antibodies) is reported as “negligible effects”. Further, in assay [1] (HepG2.2.15 cells, particle gel assay with anti‐preS1 antibody and qPCR, n = 3), the “inhibitory effect on HBV‐enveloped particle release and viral DNA content in supernatant” value was “significantly stronger inhibitory effect; also recorded: dose‐dependent manner”. Moreover, in assay [2], the “inhibition of enveloped‐particle release” value was “dose‐dependent manner”.
Turning to “WDLAWMFRLPVG [pep415, reference compound]”, the “inhibition of GRP78-enhanced enveloped‐particle release and viral DNA content” value in assay [1] (n = 3) is given as “inhibited”.
In the case of “GSWNTFRAQPTI [GBP64, phage-display 12-mer peptide […]]”, on recombinant GRP78 (setting [5]), the “N (sites)” value came to 2.88±0.501 sites and the “△H” value turned out to be 0.486 ± 0.186 kcal/mol.
For LTPHKHHKHLHA [GBP65] the same measures were 10.0±1.05 sites and 2.58 ± 0.647 kcal/mol.
For “FHSHHNRPMKSP [GBP63, phage-display 12-mer peptide […]]” the same measures were 0.248±3.22 sites and 8.83 ± 119 kcal/mol.
Turning to “QPTPISPPLRN [pep60, hydrophobic preS1 peptide 91‐[…]‐102]”, the “interaction with GRP78 in words” value on recombinant GRP78 (25 °C) is “weak interaction”. Moreover, the “inhibition of GRP78-enhanced enveloped‐particle release and viral DNA content” value in assay [1] (n = 3) is reported as “minimal effects”.

B1: pep56 (19-DPAFGANSL-29) (peptide)
peptide: DPAFGANSL
notes: also called pepp56; source: designed hydrophobic peptide of preS1
Consider B1, for which, in assay [3], the Kd (as a rule, the free concentration of one partner at which half of the binding sites on the other are occupied at equilibrium, for simple one-to-one binding) was 6.59 nM.

B2: GST-preS1-p2 (residues 25-90) (domain or fragment)
chain: FPDHQLDPAFGANSNNPDWDFNPNKDHWPEANQVGAGAFGPGFTPPHGGLLGWSPQAQGILTTLPA
modifications: also: GST fusion
Consider B2, for which the Kd in assay [4] came to 1200 nM.

B3: pep59 (70-QGIMQTVPAN-80) (peptide)
peptide: QGIMQTVPAN
notes: source: designed hydrophobic peptide of preS1
B3: the Kd in assay [3] came to 10.6 nM.

B4: GST-preS1-p3 (residues 66-119) (domain or fragment)
chain: GFTPPHGGLLGWSPQAQGILTTLPAAPPPASTNRQSGRQPTPISPPLRDSHPQA
modifications: also: GST fusion
As to B4, the dissociation constant (Kd) in assay [4] is 431 nM.
